Consider 6 molecules from US20090298103A1, “Predicting hemostatic risk; dependence on plasma composition” (The University of Vermont and State Agriculture College, priority 2008, published 2009).

Like-named read-outs stand apart in the source and are kept apart here.

Series [1] in a line: Light scattering measurement of Protein S depolymerization on Ca++ addition. The series is classed as physicochemical. The text has this:
Open squares: commercial PS and closed squares: in-house PS.
In regards to Protein S (PS) a Tf-based assay for PS in CTI-inhibited recalcified PS deficient plasma was developed. […] Dilutions of a normal plasma pool fall on this curve (open symbols). […] The convergence of plasma dilution data with the purified protein curve lends support of the preservation of natural PS quality in the material we isolate. The rate of depolymerization of Ca^++ free PS upon addition of Ca^++ using light scattering (FIG. 26B) was evaluated.

Series [2] concerns Tf-initiated thrombin formation. The experiment in a line: Synthetic coagulation proteome, Tf-initiated thrombin generation (prophylactic anticoagulation). The series is classed as biochemical, human. The text has this:
Materials—Human coagulation fVII, fX, fIX, and prothrombin (fII), were isolated from fresh frozen plasma using the methods of Bajaj et al., and were purged of traces of active enzymes. FXI was purified using the monoclonal anti-fXI antibody α-fXI-2. Human fV and AT were isolated from freshly frozen plasma. The following were provided as gifts: recombinant fVIII and recombinant Tf (residues 1-242); recombinant human fVIIa; and recombinant full-length tissue factor pathway inhibitor (TFPI). Corn trypsin inhibitor (CTI) was isolated from popcorn. The preparation of the Tf/lipid reagent was performed. 1,2-Dioleolyl-sn-Glycero-3-Phospho-L-Serine (PS) and 1,2-Dioleoyl-sn-Glycero-3-Phosphocholine (PC) were purchased from Avanti Polar Lipids, Inc (Alabaster, Ala.), and EDTA was purchased from Sigma (St Louis, Mo.). Phospholipid vesicles (PCPS) composed of 75% PC and 25% PS and were prepared.
(§1) Synthetic Coagulation Model—The procedure used is a modification of Lawson et al. [Lawson, J. H., Kalafatis, M., Stram, S., and Mann, K. G. (1994) J. Biol. Chem. 269, 23357-23366] and van't Veer et al. [van't Veer, C. and Mann, K. G. (1997) J. Biol. Chem. 272, 4367-4377]. Relipidated Tf at 5 pM final concentration was added to a mixture of fII, fV, fVII, fVIIIa, fVIII, fIX, fX, fXI, TFPI, and AT (all at mean physiologic concentrations) (43) in 20 mM HEPES/150 mM NaCl (HBS) with 2 mM CaCl2 containing 2 μM PCPS. Pharmacologic agents were incorporated into the reaction mixture prior to addition of the Tf reagent. Resupply was conducted at 20 min post Tf initiation by the addition of an equal volume of a freshly constituted, Tf free mixture containing procofactors, zymogens and inhibitors in HBS with 2 mM CaCl2 and 2 μM PCPS to an ongoing reaction. Pharmacologic agents were present in the resupply mixture at twice their final concentration.
(§2) Thrombin generation over time was measured in a chromogenic assay using Spectrozyme TH and a THERMOmax microplate reader (Molecular Devices Corp., Menlo Park, Calif.). In experiments assessing the reversible thrombin inhibitor DAPA, rates of thrombin generation were calculated by reference to a standard curve relating thrombin concentration to rates of substrate hydrolysis in the presence of relevant DAPA concentrations.
Incorporation of Anticoagulants into the Mathematical Model—FIG. 27 presents the sets of equations describing the mechanisms of action of each of the anticoagulants used in this study and FIG. 28 presents the rate constants controlling the identified bimolecular interactions and the dosing ranges recommended for prophylactic and therapeutic applications. Details of modeling the various anticoagulant interactions are described herein and in the Methods section. Prophylactic Anticoagulation—There is shown in FIGS. 30A and 30 C computational assessments and in FIGS. 30B and D empirical assessments of the efficacy of each anticoagulant in suppressing the onset of Tf-initiated thrombin formation. In both empirical and computational studies, a 5 pM Tf reagent stimulus was used and thrombin generation assessed over 20 min. Results are presented that compare thrombin generation in the absence of anticoagulant (♦) to that observed over the range of anticoagulant concentrations that drive the transition from partial to maximum suppression of thrombin formation. […]

Series [3] has as its system thrombin formation after resupply. Description: Synthetic coagulation proteome, resupply response (therapeutic anticoagulation). It is filed as biochemical, human. On the procedure: as §1, §2
Therapeutic Anticoagulation—We have previously reported that one outcome in closed model systems of Tf-initiated coagulation is the formation of a relatively stable prothrombin activating potential which responds to the introduction of a new supply of reactants with an immediate burst of thrombin production, i.e., a “resupply response” (see U.S. application Ser. No. 10/507,661). There is shown in FIGS. 32A-D and 33A-D computational (FIGS. 32A,C; FIGS. 33A,C) and representative empirical (FIGS. 32B,D; FIGS. 33B,D) assessments of the efficacy of each anticoagulant in suppressing the resupply response. Computational and empirical time courses of thrombin formation are shown for the final 5 min of the Tf-initiated process and for the resupply phase.

Series [4] concerns prothrombin. The experiment in a line: Western blot of prothrombin consumption during resupply in the synthetic coagulation proteome. It is filed as biochemical, human. On the procedure:
Gel Electrophoresis and Western Blotting—Resupply time course samples were quenched into an equal volume of 50 mM EDTA, 50 μM FPRck in HBS and 4 μl aliquots (potentially containing 100 ng prothrombin) were made 2% in SDS and 2% in β-mercaptoethanol and analyzed by SDS-PAGE. Protein species were separated on 4 to 12% linear gradient gel and transferred to nitrocellulose membranes (Bio-Rad Laboratories Inc., US). FII and its activation products were probed for using a polyclonal burro anti-human prethrombin 1 antibody. Reactive bands were detected using goat anti-equine horseradish peroxidase conjugated IgG (Southern Biotechnology, Birmingham Ala.) with a chemiluminescence reagent (Perkin Elmer, Boston Mass.) and Kodak X-OMat film.
Prothrombin Consumption during Resupply—In FIGS. 32B, 32D and 33D, the estimates of UFH, Fpx and DAPA efficacy potentially represent a combination of 2 modes of anticoagulant action: their relative reactivity toward preformed catalytic complexes and their direct inhibition of thrombin formed during the reaction. […]

For series [5], the target named is thrombin and meizotirombin (mIIa). Conditions: cited from earlier work.
Series [6] concerns the target T1, fVIIa (Homo sapiens, UniProt P08709).
T1 construct: Novo Nordisk (gift)
The experiment in a line: Factor VIIa titrations of Tf proteins in the absence of lipid. It is filed as biochemical. To be noted: in complex with fVIIa, Tf 0.1 nM, no lipid. On the procedure:
FIG. 24 is a graphical view of factor VIIa titrations of recombinant Tf (rTf) 1-263, rTf 1-242 and human placental Tf (all at 0.1 nM) in the absence of lipid.
Reports of physical studies of Tf have made use of SDS-PAGE, amino acid analyses and presumed stoichiometry of binding. In a most recent review, a Tf molecular weight of 47 kDa is cited, introducing a 30% error for any experimental physical parameter regarding Tf and its interactions. Tf proteins are distinguished by functional activities in simple as well as in complex reaction systems (FIGS. 24, 25).

Series [7] has as its system contact pathway inhibited blood. The experiment in a line: Contact pathway inhibited whole blood, Tf-initiated TAT formation. It is filed as biochemical, human. To be noted: increasing concentrations incorporated into blood prior to Tf (5 pM). The source says: (§3) Whole Blood Model—The protocol used is a modification of Rand et al. [Orfeo, T., Butenas, S., Brummel-Ziedins, K. E., and Mann, K. G. (2005) J. Biol. Chem. 280, 42887-42896; Rand, M. D., Lock, J. B., van't Veer, C., Gaffney, D. P., and Mann, K. G. (1996) Blood 88, 3432-3445]. A healthy donor was recruited, advised according to a protocol approved by the University of Vermont Human Studies Committee and their consent was obtained. […] Blood was drawn by venipuncture and immediately delivered into the reagent-loaded tubes. In general, 2 sets of aliquots of CTI treated blood were initiated with […] Tf reagent. One set was quenched at 1 min intervals while the other was incubated for 20 min. […] This resupply blood contained CTI alone (0.1 mg/ml), CTI+2 uM fondaparinux or CTI+320 nM C921-78. After the experiment, the tubes are centrifuged and the supernatants are aliquoted and analyzed for TAT levels. A subset of tubes containing either Fpx or C921-78 were initiated with 5 pM Tf reagent, quenched at 20 min and analyzed for TAT levels.
(§4) Anticoagulant Efficacy in Whole Blood—To test whether results from the computational and proteome based analyses would extrapolate to a more complex empirical model, the efficacy of anticoagulants in suppressing thrombin generation was addressed in contact pathway inhibited blood in both Tf-initiated and resupply regimens. […]

The test system is the same in series [8]. Description: Contact pathway inhibited whole blood, resupply. To be noted: 160 nM C921-78. The series is classed as biochemical, human.
Excerpt: as §3, §4

For series [9], the target named is fXa (Homo sapiens, UniProt P00742). Conditions: cited from earlier work.
Series [10] deals with fXa in prothrombinase (Homo sapiens, UniProt P00742). Conditions: cited from earlier work.
Series [11] relates to thrombin generation. The experiment in a line: Thrombin generation in reconstituted coagulation platelet proteome. The series is classed as biochemical, human. The text has this:
FIG. 25 is a graphical view of thrombin generation in synthetic plasma with platelets (2×10^8/ml). Notice monocyte in situ and monocyte purified.

T1 sequence (P08709 213-466 limits assumed, one chain of several): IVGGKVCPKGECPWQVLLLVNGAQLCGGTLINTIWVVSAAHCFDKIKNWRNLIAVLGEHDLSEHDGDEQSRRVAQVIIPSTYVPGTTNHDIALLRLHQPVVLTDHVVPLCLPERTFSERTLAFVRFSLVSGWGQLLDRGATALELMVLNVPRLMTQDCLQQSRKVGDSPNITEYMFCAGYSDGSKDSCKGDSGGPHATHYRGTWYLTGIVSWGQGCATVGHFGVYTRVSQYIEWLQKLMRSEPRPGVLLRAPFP
T1 sequence (P08709 61-212 partner limits assumed, one chain of several): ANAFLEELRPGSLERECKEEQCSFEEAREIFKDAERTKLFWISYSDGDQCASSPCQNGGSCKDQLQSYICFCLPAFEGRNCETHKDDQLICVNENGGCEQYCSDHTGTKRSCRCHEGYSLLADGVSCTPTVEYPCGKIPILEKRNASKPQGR
Sequence of fXa in prothrombinase (P00742 235-488 limits assumed): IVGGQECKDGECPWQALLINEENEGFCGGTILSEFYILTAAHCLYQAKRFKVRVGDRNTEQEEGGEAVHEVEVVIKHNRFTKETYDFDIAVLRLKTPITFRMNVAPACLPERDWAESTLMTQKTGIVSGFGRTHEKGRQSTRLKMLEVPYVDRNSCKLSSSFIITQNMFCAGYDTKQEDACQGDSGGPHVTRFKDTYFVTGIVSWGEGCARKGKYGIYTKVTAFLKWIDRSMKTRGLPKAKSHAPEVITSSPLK
Sequence of fXa in prothrombinase (P00742 41-179 partner limits assumed): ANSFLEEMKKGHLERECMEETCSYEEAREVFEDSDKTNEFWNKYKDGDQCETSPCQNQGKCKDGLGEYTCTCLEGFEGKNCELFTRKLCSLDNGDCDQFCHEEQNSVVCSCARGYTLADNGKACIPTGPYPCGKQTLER
Sequence of fXa in prothrombinase (P12259 29-737 partner limits assumed): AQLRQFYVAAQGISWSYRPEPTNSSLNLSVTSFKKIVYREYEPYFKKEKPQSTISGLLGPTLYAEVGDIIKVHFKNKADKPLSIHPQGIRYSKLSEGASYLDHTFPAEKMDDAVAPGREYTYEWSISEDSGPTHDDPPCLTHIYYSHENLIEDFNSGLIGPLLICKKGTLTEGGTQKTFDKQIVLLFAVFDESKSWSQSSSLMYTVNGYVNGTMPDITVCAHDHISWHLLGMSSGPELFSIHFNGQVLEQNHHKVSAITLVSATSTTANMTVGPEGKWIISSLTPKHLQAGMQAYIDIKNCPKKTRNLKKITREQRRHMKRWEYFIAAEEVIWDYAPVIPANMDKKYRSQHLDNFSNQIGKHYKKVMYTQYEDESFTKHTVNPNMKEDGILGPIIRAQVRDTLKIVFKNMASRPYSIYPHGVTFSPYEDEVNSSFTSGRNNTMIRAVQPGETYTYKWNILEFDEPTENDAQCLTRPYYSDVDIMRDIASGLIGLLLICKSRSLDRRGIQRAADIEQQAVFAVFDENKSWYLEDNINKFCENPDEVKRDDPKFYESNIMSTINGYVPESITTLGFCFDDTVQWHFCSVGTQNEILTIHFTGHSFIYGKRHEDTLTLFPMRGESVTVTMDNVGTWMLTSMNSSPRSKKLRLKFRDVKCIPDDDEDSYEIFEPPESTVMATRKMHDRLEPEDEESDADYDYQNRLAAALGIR
Sequence of fXa in prothrombinase (P12259 1574-2224 partner limits assumed): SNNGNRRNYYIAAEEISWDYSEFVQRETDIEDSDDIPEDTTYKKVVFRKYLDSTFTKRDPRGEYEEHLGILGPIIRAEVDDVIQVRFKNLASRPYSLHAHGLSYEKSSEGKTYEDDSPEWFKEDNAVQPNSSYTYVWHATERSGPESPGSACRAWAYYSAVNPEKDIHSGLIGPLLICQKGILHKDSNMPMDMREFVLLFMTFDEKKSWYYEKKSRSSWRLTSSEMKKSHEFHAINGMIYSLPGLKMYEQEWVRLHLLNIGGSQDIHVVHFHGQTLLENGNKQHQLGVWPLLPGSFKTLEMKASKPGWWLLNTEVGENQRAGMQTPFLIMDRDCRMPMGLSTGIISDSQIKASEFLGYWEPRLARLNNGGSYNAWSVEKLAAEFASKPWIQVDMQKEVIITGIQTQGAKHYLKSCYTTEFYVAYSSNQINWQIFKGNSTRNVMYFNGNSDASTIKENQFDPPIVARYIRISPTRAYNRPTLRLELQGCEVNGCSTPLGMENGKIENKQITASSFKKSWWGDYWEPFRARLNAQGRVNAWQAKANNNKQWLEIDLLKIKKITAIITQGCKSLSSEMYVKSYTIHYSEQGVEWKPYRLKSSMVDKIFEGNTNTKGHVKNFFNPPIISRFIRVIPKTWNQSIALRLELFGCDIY
Sequence of fXa (P00742 235-488 limits assumed): as the sequence (P00742 235-488 limits assumed) above
Sequence of fXa (P00742 41-179 partner limits assumed): as the sequence (P00742 41-179 partner limits assumed) above

Turning to “PS: purified in-house Protein S preparation”, the “half time of depolymerization of Ca++ free PS upon addition of Ca++” value in series [1] (25° C.) was “approximately 100 s”.

In general, Kd refers to the free concentration of one partner at which half of the binding sites on the other are occupied at equilibrium, for simple one-to-one binding. As to `CCC1CCN(C(=O)C(CCCNC(=N)N)NS(=O)(=O)c2cccc3c(N(C)C)cccc23)CC1` (stereo not shown) [DAPA, dansylarginine-N-[3-ethyl-1,5-pentanediyl]amide], the “effect on prothrombin consumption” value in [2] (20 μM DAPA) is recorded as “only attenuating the maximum rate of prothrombin consumption”. The molecule further yielded a total prothrombin consumption in series [2] (100 μM DAPA) of approximately 20 nM. For the same molecule, the “difference in rate or maximum final level of IIa=DAPA between the 2 DAPA concentrations” value in [3] (10 μM vs 100 μM DAPA) is given as “No substantial difference in rate or maximum final level”. Further, the “blocking prothrombin consumption in the resupply format” value in series [4] (DAPA) was “completely ineffective”. In addition, the Kd in [5] (thrombin and meizothrombin) was 20 to 40 nM; in [5] (value used in the model (FIG. 27)) it was 40 nM.

Regarding “placental Tf: natural human placental tissue factor isolated by monoclonal antibody procedure”, in series [6], the “Kd compared with the recombinant proteins” value was “lower Kd” and the “Vmax compared with the recombinant proteins” value is “higher Vmax”.

Take “commercial preparation of PS (ERL): commercial preparation of Protein S (ERL)”: the depolymerization behavior result in series [1] (commercial preparation (ERL)) is “does not show this depolymerization behavior”.

As for `N=C(N)NCCCC(NS(=O)(=O)c1ccccc1)C(=O)NCC(=O)NC(CCCNC(=N)N)C(=O)c1nccs1` [C921-78, Benzenesulfonyl-D-Arg-Gly-Arg-ketothiazole], in series [2] (1 nM C921-78), the “displacing the onset of thrombin generation” value is reported as “somewhat more effective than computationally predicted”; the “effects on maximum rate and concentrations of IIa” value is recorded as “minimal effects”. Also, the thrombin generation entry in series [2] (10 nM C921-78) is “completely suppressed”. Besides, in [3] (70 nM C921-78), the maximum thrombin levels is 35 nM and the “time of maximum thrombin level post resupply” value stood at 4 min. Moreover, in [3] (100 nM C921-78), the maximum thrombin levels is recorded as approximately 25 nM and the “time of maximum thrombin level post resupply” value was 10 min. In [3] (160 nM C921-78), the “delay of thrombin generation” value is on record as 11 min and the maximum thrombin levels amounted to 14 nM. Moreover, the “prothrombin consumption at 15 min” value in [4] (160 nM C921-78, densitometric analyses) is reported as approximately 10%. Besides, in series [7], the “TAT levels at 20 min” value is given as “decreases in TAT levels”. In addition, in [8], the “prothrombin consumption (immunoblots)” value is reported as “minimal”. Besides, the Kd in series [9] is approximately 0.014 nM. For the same molecule, the Kd in series [10] is 0.022 nM.

B1: monocyte Tf: tissue factor from THP-1 monocytes after stimulation with LPS (protein, UniProt P13726 33-295, looked up)
Tissue factor: SGTTNTVAAYNLTWKSTNFKTILEWEPKPVNQVYTVQISTKSGDWKSKCFYTTDTECDLTDEIVKDVKQTYLARVFSYPAGNVESTGSAGEPLYENSPEFTPYLETNLGQPTIQSFEQVGTKVNVTVEDERTLVRRNNTFLSLRDVFGKDLIYTLYYWKSSSSGKKTAKTNTNEFLIDVDKGENYCFSVQAVIPSRTVNRKSTDSPVECMGQEKGEFREIFYIIGAVVFVVIILVIILAISLHKCRKAGVGQSWKENSPLNVS
In the case of B1, the “activity relative to monocyte Tf reconstituted on synthetic membranes” value in series [11] was approximately 400 ×.
